Data on 16 compounds can be found in US20230117034A1, “PYRAZOLOTRIAZINES” (Bayer Aktiengesellschaft, priority 2019, published 2023).

Each structure is given as a SMILES string.

Assay [1] has as its system BRCA1 mRNA expression in MDA-MB-231 cells. The experiment in a line: qRT-PCR assay: BRCA1 mRNA expression in MDA-MB-231. Type of assay: cell-based, human. To be noted: Homo sapiens, MDA-MB-231, Inhibition of BRCA1 mRNA expression in MDA-MB-231 cells; median; read-out: RTqPCR-MDA-MB-231, IC50, BRCA1 (median). An outline of the steps: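 Read-out is RT-qPCR with expression normalised to the GAPDH housekeeping gene. Before RNA isolation, plated cells (200,000 per well, 24 h attachment) received test substances continuously over 24 h, and 600 ng of RNA served as cDNA template.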

Assay [2] deals with CAL-120, human breast adenocarcinoma cells. The experiment in a line: Proliferation assay CAL-120 (crystal violet, 4 days). Type of assay: cell-based. To be noted: Homo sapiens, CAL-120, 96 h, CAL-120 cells, median, read-out: Prolif-CAL-120, IC50-[mol/l] (median). An outline of the steps: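 Plated 4,000 cells/well, 10% FCS; 24 h later treated 0.01-10 µmol/L cpd (DMSO 0.1%), 4 d. Fix glutaraldehyde, stain 0.1% crystal violet pH 3.0, elute acetic acid, A595. Normalized to t0 plate/untreated; 4-param IC50.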

Assay [3] addresses T1, CDK12 (nuclear staining in CAL-120 cells) (Homo sapiens, UniProt Q9NYV4).
T1 construct: endogenous in cells; host or cells: CAL-120 human breast cancer cells (DSMZ ACC 459)
The experiment in a line: CDK12 nuclear protein level: immunofluorescence/high content analysis (CAL-120). Type of assay: cell-based. The conditions noted are these: for DC50: CAL-120 cells, 24 h, immunofluorescence, 50% reduction of nuclear CDK12 staining intensity, median, read-out: CDK12 degradation IF, DC50- [mol/l] (median); for (IC50 CDK12 high ATP) to (Degradation DC50 CDK12) ratio: ratio of IC50 CDK12 high ATP kinase assay to DC50 CDK12 degradation (IF, CAL-120). An outline of the steps: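 CAL-120 cells were treated with compound for 24 h at 37 °C, fixed with PFA and immunostained for CDK12. Nuclear CDK12 intensity was quantified by automated image analysis and normalized to DMSO and control. DC50 is the concentration giving 50% reduction of nuclear staining.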

Assay [4] deals with T2, CYCLIN K (nuclear staining in CAL-120 cells) (Homo sapiens, UniProt O75909).
T2 construct: endogenous in cells; host or cells: CAL-120 human breast cancer cells (DSMZ ACC 459)
T2 sequence (O75909 whole entry): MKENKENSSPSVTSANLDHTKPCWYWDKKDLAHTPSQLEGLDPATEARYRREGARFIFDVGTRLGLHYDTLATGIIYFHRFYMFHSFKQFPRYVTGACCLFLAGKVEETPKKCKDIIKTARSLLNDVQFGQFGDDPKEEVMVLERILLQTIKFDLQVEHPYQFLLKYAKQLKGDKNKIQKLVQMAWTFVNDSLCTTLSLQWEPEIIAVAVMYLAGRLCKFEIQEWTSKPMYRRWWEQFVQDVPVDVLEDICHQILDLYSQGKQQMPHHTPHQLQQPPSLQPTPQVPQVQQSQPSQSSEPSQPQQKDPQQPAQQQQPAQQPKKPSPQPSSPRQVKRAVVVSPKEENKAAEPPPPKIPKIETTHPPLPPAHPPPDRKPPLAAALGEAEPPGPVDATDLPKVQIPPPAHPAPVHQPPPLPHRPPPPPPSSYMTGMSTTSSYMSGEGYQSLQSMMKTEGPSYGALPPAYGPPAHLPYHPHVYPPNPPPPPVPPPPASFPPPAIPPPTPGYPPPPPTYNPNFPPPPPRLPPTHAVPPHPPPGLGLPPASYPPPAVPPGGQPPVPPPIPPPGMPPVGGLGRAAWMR
T2 sequence (Q9NYV4 whole entry partner): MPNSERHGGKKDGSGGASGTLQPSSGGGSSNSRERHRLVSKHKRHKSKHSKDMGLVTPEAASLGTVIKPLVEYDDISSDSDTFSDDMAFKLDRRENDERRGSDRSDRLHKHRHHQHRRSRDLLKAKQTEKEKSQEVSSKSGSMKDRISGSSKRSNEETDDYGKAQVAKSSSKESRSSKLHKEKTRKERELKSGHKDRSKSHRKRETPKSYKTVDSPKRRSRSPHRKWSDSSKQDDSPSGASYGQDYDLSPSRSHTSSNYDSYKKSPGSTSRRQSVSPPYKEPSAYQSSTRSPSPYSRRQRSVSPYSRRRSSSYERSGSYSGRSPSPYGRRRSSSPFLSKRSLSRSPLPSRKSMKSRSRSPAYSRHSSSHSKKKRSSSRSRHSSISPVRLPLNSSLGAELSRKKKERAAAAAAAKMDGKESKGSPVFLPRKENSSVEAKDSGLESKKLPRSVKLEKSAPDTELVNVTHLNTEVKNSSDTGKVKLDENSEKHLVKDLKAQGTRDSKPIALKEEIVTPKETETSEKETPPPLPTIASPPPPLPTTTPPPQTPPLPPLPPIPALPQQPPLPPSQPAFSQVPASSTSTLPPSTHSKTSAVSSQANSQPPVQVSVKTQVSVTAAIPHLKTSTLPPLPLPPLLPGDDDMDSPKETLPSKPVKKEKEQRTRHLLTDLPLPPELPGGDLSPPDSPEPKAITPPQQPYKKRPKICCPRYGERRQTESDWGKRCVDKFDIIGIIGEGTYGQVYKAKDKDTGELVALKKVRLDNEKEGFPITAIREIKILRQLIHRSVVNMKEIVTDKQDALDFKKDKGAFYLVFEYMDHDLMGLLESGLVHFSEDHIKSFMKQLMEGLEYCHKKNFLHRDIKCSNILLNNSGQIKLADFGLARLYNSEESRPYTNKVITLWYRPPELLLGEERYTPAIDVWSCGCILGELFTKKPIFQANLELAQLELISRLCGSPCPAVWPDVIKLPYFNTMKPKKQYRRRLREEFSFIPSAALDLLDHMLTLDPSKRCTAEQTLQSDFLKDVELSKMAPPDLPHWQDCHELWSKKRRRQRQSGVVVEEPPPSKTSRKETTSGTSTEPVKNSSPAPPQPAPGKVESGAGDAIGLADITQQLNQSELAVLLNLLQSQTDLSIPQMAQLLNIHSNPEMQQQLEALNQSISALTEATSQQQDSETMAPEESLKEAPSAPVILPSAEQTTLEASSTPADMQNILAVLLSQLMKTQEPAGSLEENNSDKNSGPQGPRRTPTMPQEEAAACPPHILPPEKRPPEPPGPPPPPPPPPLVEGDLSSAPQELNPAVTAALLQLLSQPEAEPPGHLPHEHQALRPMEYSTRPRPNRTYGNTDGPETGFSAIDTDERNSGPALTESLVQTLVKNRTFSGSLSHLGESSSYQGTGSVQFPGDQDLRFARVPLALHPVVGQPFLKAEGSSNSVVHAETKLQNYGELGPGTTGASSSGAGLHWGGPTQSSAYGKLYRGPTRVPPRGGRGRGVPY
The assay is described as follows: CYCLIN K nuclear protein level: immunofluorescence high content analysis (CAL-120). Type of assay: cell-based. To be noted: 24 h, 50% reduction of nuclear CCNK staining intensity, median, read-out: CYCLIN K degradation IF, DC50-[mol/l] (median). As to the method: 8. CYCLIN K nuclear protein level: immunofluorescence High Content Analysis
CAL-120 human breast cancer cells (DSMZ ACC 459) are seeded in 1536-well microtiter plates (800 cells per well) containing 50 nanoL of compounds in Dose-Response. Control wells received DMSO or Example 4. Plates are then incubated for 24 h at 37° C. in an humidified incubator and fixed with 4% PFA for 10 min. Then immunofluorescence (IF) against CYCLIN K (ThermoFisher Scientific CONK Antibody #PA5-85020, rabbit, 1:200 dilution) is performed using standard IF protocols. Cells are then stained with Hoechst 33342 (Life Technologies, H-1399, 0.1 microg/ml) and imaged on an automated confocal microscopy system (e.g. Perkin Elmer Opera Phenix). Nuclear and cytoplasmic intensity as well as the nuclear/cytoplasmic intensity ratio is determined by automated image analysis using custom generated scripts (MetaXpress). Data is then transferred to Genedata Screener software, normalized to DMSO and control and DC50 values (degrading concentration to achieve 50% reduction of nuclear CCNK staining intensity relative to controls) are reported.

T1 sequence (Q9NYV4 whole entry): as the sequence (Q9NYV4 whole entry partner) above
T1 sequence (O75909 whole entry partner): as the sequence (O75909 whole entry) above

As to `C[C@@H]1CN(c2nc(NCc3nc4ccccc4[nH]3)n3ncc(Br)c3n2)C[C@H](C)N1` [Example 142, N-(1H-benzimidazol-2-ylmethyl)-8-bromo-2-[(3R,5S)-3,5-dimethylpiperazin-1-yl]pyrazolo[1,5-a][1,3,5]triazin-4-amine], the IC50 in assay [1] worked out at 19.1 nM; in assay [2] it was 11.3 nM. Also, the DC50 came out at 1.62 nM in assay [3] and 0.163 nM in assay [4]. In addition, the “(IC50 CDK12 high ATP) to (Degradation DC50 CDK12) ratio” value in assay [3] is 6679.

As to `c1ccc2[nH]c(CNc3nc(N4CCOCC4)nc4c(-c5ccncc5)cnn34)nc2c1` [Example 111, N-[(1H-benzimidazol-2-yl)methyl]-2-(morpholin-4-yl)-8-(pyridin-4-yl)pyrazolo[1,5-a][1,3,5]triazin-4-amine hydrogen chloride (1/1)], the IC50 was determined as 15.3 nM in assay [1] and 8.96 nM in assay [2]. The DC50 came to 1.22 nM in assay [3] and 1 nM in assay [4]. Besides, the “(IC50 CDK12 high ATP) to (Degradation DC50 CDK12) ratio” value in assay [3] is over 1337.

For `C[C@@H]1CN(c2nc(NCc3nnc(-c4ccccc4)[nH]3)n3ncc(Br)c3n2)CCN1C.O=CO` [Example 130, 8-bromo-2-[(3R)-3,4-dimethylpiperazin-1-yl]-N-[(5-phenyl-4H-1,2,4-triazol-3-yl)methyl]pyrazolo[1,5-a][1,3,5]triazin-4-amine formate], the values for the IC50 in assay [1] and in assay [2] were 37.6 nM and 34.8 nM, respectively. Also, the DC50 in assay [3] stood at 3.31 nM; in assay [4] it was 2.01 nM. Further, the “(IC50 CDK12 high ATP) to (Degradation DC50 CDK12) ratio” value in assay [3] is recorded as 2547.

For `COc1ccc2[nH]c(CNc3nc(N4C[C@@H](C)O[C@@H](C)C4)nc4c(Br)cnn34)nc2c1` [Example 124, 8-bromo-2-[(2R, 6S)-2,6-dimethylmorpholin-4-yl]-N-[(5-methoxy-1H-benzimidazol-2-yl)methyl]pyrazolo[1,5-a][1,3,5]triazin-4-amine], the IC50 in assay [1] was found to be 4.66 nM; in assay [2], 6.43 nM. Moreover, the results for the DC50 in assay [3] and in assay [4] were 0.768 nM and 0.142 nM, respectively. For the same compound, in assay [3], the “(IC50 CDK12 high ATP) to (Degradation DC50 CDK12) ratio” value was 636.

`CCC1COCCN1c1nc(NCc2nc3ccccc3[nH]2)n2ncc(Br)c2n1` (centres unmarked) [Example 116, N-(1H-benzimidazol-2-ylmethyl)-8-bromo-2-(3-ethylmorpholin-4-yl)pyrazolo[1,5-a][1,3,5]triazin-4-amine]: the IC50 in assay [1] came out at 123 nM; in assay [2], 47 nM. Also, the DC50 in assay [3] worked out at 4.44 nM; in assay [4], 4.92 nM. In addition, the “(IC50 CDK12 high ATP) to (Degradation DC50 CDK12) ratio” value in assay [3] was 1517.

Regarding `Clc1ccccc1-c1cnc(CNc2nc(N3CCOCC3)nc3c(Br)cnn23)[nH]1` [Example 96, 8-bromo-N-{[5-(2-chlorophenyl)-1H-imidazol-2-yl]methyl}-2-(morpholin-4-yl)pyrazolo[1,5-a][1,3,5]triazin-4-amine], the IC50 turned out to be 29.4 nM in assay [1] and 30.1 nM in assay [2]. Moreover, the DC50 came to 5.73 nM in assay [3] and 10.7 nM in assay [4]. Moreover, the “(IC50 CDK12 high ATP) to (Degradation DC50 CDK12) ratio” value in assay [3] turned out to be 812.

For the compound `CN1CCN(c2nc(NCc3nnc(-c4cccc(F)c4)[nH]3)n3ncc(Br)c3n2)CC1` [Example 136, 8-bromo-N-{[5-(3-fluorophenyl)-4H-1,2,4-triazol-3-yl]methyl}-2-(4-methylpiperazin-1-yl)pyrazolo[1,5-a][1,3,5]triazin-4-amine], the IC50 worked out at 33.8 nM in assay [1] and 17.1 nM in assay [2]. Moreover, the values for the DC50 in assay [3] and in assay [4] were 3.61 nM and 0.464 nM, respectively. Besides, the “(IC50 CDK12 high ATP) to (Degradation DC50 CDK12) ratio” value in assay [3] amounted to 1140.

On to `CN1CCN(c2nc(NCc3nc4c(F)c(F)ccc4[nH]3)n3ncc(C4CC4)c3n2)CC1` [Example 159, 8-cyclopropyl-N-[(4,5-difluoro-1H-benzimidazol-2-yl)methyl]-2-(4-methylpiperazin-1-yl)pyrazolo[1,5-a][1,3,5]triazin-4-amine], for which the values for the IC50 in assay [1] and in assay [2] were 1.68 nM and 1.73 nM, respectively. In addition, the values for the DC50 in assay [3] and in assay [4] were 0.521 nM and 0.0663 nM, respectively. In addition, the “(IC50 CDK12 high ATP) to (Degradation DC50 CDK12) ratio” value in assay [3] was determined as 18457.

As for `Cc1ccc2[nH]c(CNc3nc(N4CCOCC4)nc4c(Br)cnn34)nc2c1` [Example 157, 8-bromo-N-[(5-methyl-1H-benzimidazol-2-yl)methyl]-2-(morpholin-4-yl)pyrazolo[1,5-a][1,3,5]triazin-4-amine], the IC50 in assay [1] turned out to be 0.903 nM; in assay [2], 1.78 nM. For the same compound, the values for the DC50 in assay [3] and in assay [4] were 0.62 nM and 0.119 nM, respectively. Besides, the “(IC50 CDK12 high ATP) to (Degradation DC50 CDK12) ratio” value in assay [3] is 1089.

`Fc1cc(F)cc(-c2nnc(CNc3nc(N4CCOCC4)nc4c(Br)cnn34)[nH]2)c1` [Example 105, 8-bromo-N-{[5-(3,5-difluorophenyl)-4H-1,2,4-triazol-3-yl]methyl}-2-(morpholin-4-yl)pyrazolo[1,5-a][1,3,5]triazin-4-amine]: the IC50 amounted to 8.43 nM in assay [1] and 7.36 nM in assay [2]. Moreover, the DC50 in assay [3] is 2.49 nM; in assay [4], 0.676 nM. Besides, in assay [3], the “(IC50 CDK12 high ATP) to (Degradation DC50 CDK12) ratio” value came to 429.

As for `Brc1cnn2c(NCc3nc4ccccc4[nH]3)nc(N3CCOCC3)nc12` [Example 4, N-[(1H-benzimidazol-2-yl)methyl]-8-bromo-2-(morpholin-4-yl)pyrazolo[1,5-a][1,3,5]triazin-4-amine], the IC50 in assay [1] was 7.13 nM; in assay [2], 12 nM. In addition, the DC50 in assay [3] came out at 1.07 nM; in assay [4] it was 2.46 nM. Further, the “(IC50 CDK12 high ATP) to (Degradation DC50 CDK12) ratio” value in assay [3] is given as 1628.

Turning to `Cc1cccc2[nH]c(CNc3nc(N4CCN(C)CC4)nc4c(Br)cnn34)nc12` [Example 151, 8-bromo-N-[(4-methyl-1H-benzimidazol-2-yl)methyl]-2-(4-methylpiperazin-1-yl)pyrazolo[1,5-a][1,3,5]triazin-4-amine], the IC50 in assay [1] was 18.3 nM; in assay [2] it was 24.7 nM. For the same compound, the DC50 in assay [3] came out at 2.07 nM; in assay [4] it was 2.45 nM. Also, the “(IC50 CDK12 high ATP) to (Degradation DC50 CDK12) ratio” value in assay [3] stood at 2046.

With `CCN1CCN(c2nc(NCc3nc4ccccc4[nH]3)n3ncc(Br)c3n2)CC1` [Example 137, N-[(1H-benzimidazol-2-yl)methyl]-8-bromo-2-(4-ethylpiperazin-1-yl)pyrazolo[1,5-a][1,3,5]triazin-4-amine], the values for the IC50 in assay [1] and in assay [2] were 205 nM and 110 nM, respectively. Further, the DC50 in assay [3] was 10.8 nM; in assay [4], 4.68 nM. For the same compound, in assay [3], the “(IC50 CDK12 high ATP) to (Degradation DC50 CDK12) ratio” value came out at 1196.

As for `Fc1cccc(-c2nnc(CNc3nc(N4C[C@H]5C[C@@H]4CO5)nc4c(Br)cnn34)[nH]2)c1` [Example 153, 8-bromo-N-{[5-(3-fluorophenyl)-4H-1,2,4-triazol-3-yl]methyl}-2-[(1R,4R)-2-oxa-5-azabicyclo[2.2.1]heptan-5-yl]pyrazolo[1,5-a][1,3,5]triazin-4-amine], the IC50 in assay [1] turned out to be 8.2 nM; in assay [2], 5.78 nM. Moreover, the DC50 came out at 2.58 nM in assay [3] and 1.42 nM in assay [4]. In addition, the “(IC50 CDK12 high ATP) to (Degradation DC50 CDK12) ratio” value in assay [3] is given as 1143.

As for `C[C@@H]1CN(c2nc(NCc3nc4c(F)cccc4[nH]3)n3ncc(Br)c3n2)C[C@H](C)O1` [Example 109, 8-bromo-2-[(2R,6S)-2,6-dimethylmorpholin-4-yl]-N-[(4-fluoro-1H-benzimidazol-2-yl)methyl]pyrazolo[1,5-a][1,3,5]triazin-4-amine], the IC50 in assay [1] was found to be 1.34 nM; in assay [2], 4.9 nM. Further, the DC50 in assay [3] came out at 1.09 nM; in assay [4], 0.115 nM. The “(IC50 CDK12 high ATP) to (Degradation DC50 CDK12) ratio” value in assay [3] was determined as 162.

For the compound `Brc1cnn2c(NCc3nc4ccccc4[nH]3)nc(N3C[C@@H]4CCCN[C@@H]4C3)nc12` [Example 146, N-[(1H-benzimidazol-2-yl)methyl]-8-bromo-2-[(4aS,7aS)-octahydro-6H-pyrrolo[3,4-b]pyridin-6-yl]pyrazolo[1,5-a][1,3,5]triazin-4-amine], the IC50 is 16.1 nM in assay [1] and 31 nM in assay [2]. In addition, the DC50 in assay [3] was 3.82 nM; in assay [4] it was 0.56 nM. For the same compound, the “(IC50 CDK12 high ATP) to (Degradation DC50 CDK12) ratio” value in assay [3] worked out at 2320.
